Consider 16 compounds from patent US8227601B2, “Diaryl-purines, azapurines and -deazapurines as non-nucleoside reverse transcriptase inhibitor for treatment of HIV” (priority 2005, dated 2012).

A value given as a limit tells only on which side of the number the result lay.

The test system of the first test is wild type HIV-1. Description: microbe, parasite or virus in culture. It counts as cell-based, human immunodeficiency virus type 1 (HIV-1). The following applies: Human immunodeficiency virus 1, Hela-JC53, read-out: EC50 WT (nM).
On to `Cc1cc(C)c(Oc2nc(Nc3ccc(C#N)c(C(F)(F)F)c3)nc3[nH]cnc23)c(C)c1` [Cpd 40], for which the EC50 lay in the range of 10 to 100 nM.
Regarding `Cc1cc(C#N)cc(C)c1Oc1nc(Nc2ccc(C#N)cc2)nc2ccn(Cc3ccccc3)c12` [Cpd 41], the EC50 is below 10 nM.
Same read-out and setting: as for `Cc1cc(C#N)cc(C)c1Oc1nc(Nc2ccc(C#N)cc2)nc2cc[nH]c12` [Cpd 42], the figure is below 10 nM.
Turning to `CCCc1nn(C)c2c(Oc3c(C)cc(C)cc3C)nc(Nc3ccc(C#N)cc3)nc12` [Cpd 43], the EC50 lay within 10 to 100 nM.
For `Cc1cc(C)c(Oc2nc(Nc3ccc(C4CC4)cc3)nc3[nH]cnc23)c(C)c1` [Cpd 44], the EC50 was 10 to 100 nM.
Same read-out and setting: the value for `Cc1cc(C)c(Oc2nc(Nc3ccc(C#N)cc3)nc3c2ncn3C)c(C)c1` [Cpd 45] was below 10 nM; that for `CCN(c1ccc(C#N)cc1)c1nc(Oc2c(C)cc(C#N)cc2C)c2c(ccn2CC)n1` [Cpd 46] was above 100 nM; that for `Cc1cc(C2CC2)cc(C)c1Oc1nc(Nc2ccc(C#N)cc2)nc2ccn(Cc3ccccc3)c12` [Cpd 47] was 10 to 100 nM.
For the compound `Cc1cc(C)c(Sc2nc(Nc3ccc(C#N)cc3)nc3ccn(Cc4ccccc4)c23)c(C)c1` [Cpd 48], the EC50 fell in the range of 10 to 100 nM.
Take `Cc1cc(C#N)cc(C)c1Oc1nc(Nc2ccc(C#N)cc2)nc2c(Cl)c[nH]c12` [Cpd 49]: the EC50 was below 10 nM.
`COc1cc(C)cc(OC)c1Oc1nc(Nc2ccc(C#N)cc2)nc2[nH]cnc12` [Cpd 50]: the EC50 was below 10 nM.
On to `Cc1cc(C)c(Sc2nc(Nc3ccc(C#N)cc3)nc3cc[nH]c23)c(C)c1` [Cpd 51], for which the EC50 is below 10 nM.
On the same count and under the same terms, as for `Cc1cc(C2CC2)cc(C)c1Oc1nc(Nc2ccc(C#N)cc2)nc2cc[nH]c12` [Cpd 52], the figure is below 10 nM; as for `Cc1cc(C)c(Sc2nc(Nc3ccc(C#N)cc3)nc3c(Cl)c[nH]c23)c(C)c1` [Cpd 53], below 10 nM.
Still for that read-out and setting: as for `Cc1cc(C)c(Sc2nc(Nc3ccc(C#N)cc3)nc3c(Cl)cn(Cc4ccccc4)c23)c(C)c1` [Cpd 54], the figure is below 10 nM; as for `Cc1cc(C)c(Sc2nc(Nc3ccc(C#N)cc3)nc3c(Br)c[nH]c23)c(C)c1` [Cpd 55], below 10 nM.

The test system of another test is HIV-1 L1001-K103N. Description: microbe, parasite or virus in culture. It counts as cell-based, human immunodeficiency virus type 1 (HIV-1). The note with it: Human immunodeficiency virus 1, read-out: EC50 L1001-K103N (nM), L1001-K103N mutant.
On to `Cc1cc(C)c(Oc2nc(Nc3ccc(C#N)c(C(F)(F)F)c3)nc3[nH]cnc23)c(C)c1` [Cpd 40], for which the EC50 was in the range of 10 to 100 nM.
In the case of `Cc1cc(C#N)cc(C)c1Oc1nc(Nc2ccc(C#N)cc2)nc2ccn(Cc3ccccc3)c12` [Cpd 41], the EC50 fell in the range of 10 to 100 nM.
On the same count and under the same terms, the value for `Cc1cc(C#N)cc(C)c1Oc1nc(Nc2ccc(C#N)cc2)nc2cc[nH]c12` [Cpd 42] was below 10 nM; that for `CCCc1nn(C)c2c(Oc3c(C)cc(C)cc3C)nc(Nc3ccc(C#N)cc3)nc12` [Cpd 43] was 10 to 100 nM.
`Cc1cc(C)c(Oc2nc(Nc3ccc(C4CC4)cc3)nc3[nH]cnc23)c(C)c1` [Cpd 44]: the EC50 was above 100 nM.
With `Cc1cc(C)c(Oc2nc(Nc3ccc(C#N)cc3)nc3c2ncn3C)c(C)c1` [Cpd 45], the EC50 fell in the range of 10 to 100 nM.
As for `CCN(c1ccc(C#N)cc1)c1nc(Oc2c(C)cc(C#N)cc2C)c2c(ccn2CC)n1` [Cpd 46], the EC50 is above 100 nM.
Take `Cc1cc(C2CC2)cc(C)c1Oc1nc(Nc2ccc(C#N)cc2)nc2ccn(Cc3ccccc3)c12` [Cpd 47]: the EC50 is above 100 nM.
In the case of `Cc1cc(C)c(Sc2nc(Nc3ccc(C#N)cc3)nc3ccn(Cc4ccccc4)c23)c(C)c1` [Cpd 48], the EC50 was above 100 nM.
Still for that read-out and setting: as for `Cc1cc(C#N)cc(C)c1Oc1nc(Nc2ccc(C#N)cc2)nc2c(Cl)c[nH]c12` [Cpd 49], the figure is below 10 nM; as for `COc1cc(C)cc(OC)c1Oc1nc(Nc2ccc(C#N)cc2)nc2[nH]cnc12` [Cpd 50], above 100 nM; as for `Cc1cc(C)c(Sc2nc(Nc3ccc(C#N)cc3)nc3cc[nH]c23)c(C)c1` [Cpd 51], 10 to 100 nM.
Still for that read-out and setting: the value for `Cc1cc(C2CC2)cc(C)c1Oc1nc(Nc2ccc(C#N)cc2)nc2cc[nH]c12` [Cpd 52] was below 10 nM; that for `Cc1cc(C)c(Sc2nc(Nc3ccc(C#N)cc3)nc3c(Cl)c[nH]c23)c(C)c1` [Cpd 53] was above 100 nM; that for `Cc1cc(C)c(Sc2nc(Nc3ccc(C#N)cc3)nc3c(Cl)cn(Cc4ccccc4)c23)c(C)c1` [Cpd 54] was above 100 nM.
On to `Cc1cc(C)c(Sc2nc(Nc3ccc(C#N)cc3)nc3c(Br)c[nH]c23)c(C)c1` [Cpd 55], for which the EC50 is above 100 nM.

In a further test the test system is HIV-1 Y188L. Description: microbe, parasite or virus in culture. It counts as cell-based, human immunodeficiency virus type 1 (HIV-1). The following applies: Human immunodeficiency virus 1, read-out: EC50 Y188L (nM).
In the case of `Cc1cc(C)c(Oc2nc(Nc3ccc(C#N)c(C(F)(F)F)c3)nc3[nH]cnc23)c(C)c1` [Cpd 40], the EC50 is above 100 nM.
`Cc1cc(C#N)cc(C)c1Oc1nc(Nc2ccc(C#N)cc2)nc2ccn(Cc3ccccc3)c12` [Cpd 41]: the EC50 fell in the range of 10 to 100 nM.
The same measure, in the same setting: as for `Cc1cc(C#N)cc(C)c1Oc1nc(Nc2ccc(C#N)cc2)nc2cc[nH]c12` [Cpd 42], the figure is below 10 nM; as for `CCCc1nn(C)c2c(Oc3c(C)cc(C)cc3C)nc(Nc3ccc(C#N)cc3)nc12` [Cpd 43], above 100 nM; as for `Cc1cc(C)c(Oc2nc(Nc3ccc(C4CC4)cc3)nc3[nH]cnc23)c(C)c1` [Cpd 44], above 100 nM.
On the same count and under the same terms, as for `Cc1cc(C)c(Oc2nc(Nc3ccc(C#N)cc3)nc3c2ncn3C)c(C)c1` [Cpd 45], the figure is below 10 nM.
For the compound `CCN(c1ccc(C#N)cc1)c1nc(Oc2c(C)cc(C#N)cc2C)c2c(ccn2CC)n1` [Cpd 46], the EC50 was above 100 nM.
With `Cc1cc(C2CC2)cc(C)c1Oc1nc(Nc2ccc(C#N)cc2)nc2ccn(Cc3ccccc3)c12` [Cpd 47], the EC50 was above 100 nM.
In the case of `Cc1cc(C)c(Sc2nc(Nc3ccc(C#N)cc3)nc3ccn(Cc4ccccc4)c23)c(C)c1` [Cpd 48], the EC50 was above 100 nM.
In the case of `Cc1cc(C#N)cc(C)c1Oc1nc(Nc2ccc(C#N)cc2)nc2c(Cl)c[nH]c12` [Cpd 49], the EC50 is below 10 nM.
For `COc1cc(C)cc(OC)c1Oc1nc(Nc2ccc(C#N)cc2)nc2[nH]cnc12` [Cpd 50], the EC50 is 10 to 100 nM.
For the compound `Cc1cc(C)c(Sc2nc(Nc3ccc(C#N)cc3)nc3cc[nH]c23)c(C)c1` [Cpd 51], the EC50 is below 10 nM.
On the same count and under the same terms, the value for `Cc1cc(C2CC2)cc(C)c1Oc1nc(Nc2ccc(C#N)cc2)nc2cc[nH]c12` [Cpd 52] was below 10 nM; that for `Cc1cc(C)c(Sc2nc(Nc3ccc(C#N)cc3)nc3c(Cl)c[nH]c23)c(C)c1` [Cpd 53] was 10 to 100 nM; that for `Cc1cc(C)c(Sc2nc(Nc3ccc(C#N)cc3)nc3c(Cl)cn(Cc4ccccc4)c23)c(C)c1` [Cpd 54] was 10 to 100 nM.
Regarding `Cc1cc(C)c(Sc2nc(Nc3ccc(C#N)cc3)nc3c(Br)c[nH]c23)c(C)c1` [Cpd 55], the EC50 lay in the range of 10 to 100 nM.

The subject of another test is HIV-1 Y181C. Description: microbe, parasite or virus in culture. It counts as cell-based, human immunodeficiency virus type 1 (HIV-1). The note with it: Human immunodeficiency virus 1, read-out: EC50 Y181C (nM), Y181C mutant.
In the case of `Cc1cc(C)c(Oc2nc(Nc3ccc(C#N)c(C(F)(F)F)c3)nc3[nH]cnc23)c(C)c1` [Cpd 40], the EC50 lay in the range of 10 to 100 nM.
`Cc1cc(C#N)cc(C)c1Oc1nc(Nc2ccc(C#N)cc2)nc2ccn(Cc3ccccc3)c12` [Cpd 41]: the EC50 is below 10 nM.
Take `Cc1cc(C#N)cc(C)c1Oc1nc(Nc2ccc(C#N)cc2)nc2cc[nH]c12` [Cpd 42]: the EC50 is below 10 nM.
Take `CCCc1nn(C)c2c(Oc3c(C)cc(C)cc3C)nc(Nc3ccc(C#N)cc3)nc12` [Cpd 43]: the 50% effective concentration (EC50) lay within 10 to 100 nM.
Same read-out and setting: the value for `Cc1cc(C)c(Oc2nc(Nc3ccc(C4CC4)cc3)nc3[nH]cnc23)c(C)c1` [Cpd 44] was above 100 nM; that for `Cc1cc(C)c(Oc2nc(Nc3ccc(C#N)cc3)nc3c2ncn3C)c(C)c1` [Cpd 45] was below 10 nM.
Consider `CCN(c1ccc(C#N)cc1)c1nc(Oc2c(C)cc(C#N)cc2C)c2c(ccn2CC)n1` [Cpd 46], for which the EC50 is above 100 nM.
`Cc1cc(C2CC2)cc(C)c1Oc1nc(Nc2ccc(C#N)cc2)nc2ccn(Cc3ccccc3)c12` [Cpd 47]: the EC50 fell in the range of 10 to 100 nM.
As to `Cc1cc(C)c(Sc2nc(Nc3ccc(C#N)cc3)nc3ccn(Cc4ccccc4)c23)c(C)c1` [Cpd 48], the EC50 lay within 10 to 100 nM.
With `Cc1cc(C#N)cc(C)c1Oc1nc(Nc2ccc(C#N)cc2)nc2c(Cl)c[nH]c12` [Cpd 49], the EC50 was below 10 nM.
Still for that read-out and setting: as for `COc1cc(C)cc(OC)c1Oc1nc(Nc2ccc(C#N)cc2)nc2[nH]cnc12` [Cpd 50], the figure is below 10 nM; as for `Cc1cc(C)c(Sc2nc(Nc3ccc(C#N)cc3)nc3cc[nH]c23)c(C)c1` [Cpd 51], below 10 nM.
As for `Cc1cc(C2CC2)cc(C)c1Oc1nc(Nc2ccc(C#N)cc2)nc2cc[nH]c12` [Cpd 52], the EC50 was below 10 nM.
On to `Cc1cc(C)c(Sc2nc(Nc3ccc(C#N)cc3)nc3c(Cl)c[nH]c23)c(C)c1` [Cpd 53], for which the EC50 lay in the range of 10 to 100 nM.
The same measure, in the same setting: as for `Cc1cc(C)c(Sc2nc(Nc3ccc(C#N)cc3)nc3c(Cl)cn(Cc4ccccc4)c23)c(C)c1` [Cpd 54], the figure is 10 to 100 nM.
With `Cc1cc(C)c(Sc2nc(Nc3ccc(C#N)cc3)nc3c(Br)c[nH]c23)c(C)c1` [Cpd 55], the EC50 fell in the range of 10 to 100 nM.

By EC50 is commonly meant the concentration at which the effect is half-maximal.
